Data from patent US4575509A, “Water-soluble formulations of m-AMSA with pyroglutamic acid” (Bristol-Myers Company, priority 1984, dated 1986).
Counter-ions that a name gives are not always drawn. Like-named read-outs stand apart in the source and are kept apart here.

What was measured:
[1] = Solubility test in sterile water for injection (saturated filtrate, HPLC, m-AMSA base content); assay type: physicochemical; details: 0.22μ filtrate, HPLC assay within one hour after reconstitution
Description: To determine the relative solubilities of the pyroglutamate salts and compositions of the present invention and the prior art m-AMSA methanesulfonate salt, the following solubility test was carried out.
The following formulations were tested: […]
The formulations were prepared as follows: […]
(1) The m-AMSA methanesulfonate salt was prepared by slurrying 1 g of m-AMSA base in 125 ml of acetone for 20 minutes. The resulting near solution was vacuum filtered to remove undissolved solids. The solids remaining in the filter were washed with 10 ml of acetone and the wash solution was added to the original filtrate. To the above solution of m-AMSA base there was added with rapid stirring 0.24 ml of methanesulfonic acid over a three minute interval. Crystals formed and the mixture was stirred five additional minutes. The crystals were then vacuum filtered, washed with two 20 ml portions of acetone and vacuum dried at 50° C. for 24 hours to give 1.18 g of m-AMSA methanesulfonate (1:1) salt.
(2) The composition containing m-AMSA base and methanesulfonic acid (1:2 ratio) was prepared by adding 1 equivalent of methanesulfonic acid to the 1:1 m-AMSA methanesulfonate salt prepared above.
(3) The 1:1 m-AMSA pyroglutamate salt was prepared as described in Example 1.
(4) The 1:2 m-AMSA pyroglutamate salt was prepared as described in Example 2.
To carry out the solubility test, accurately weighed amounts of the above-described formulations were added into accurately measure amounts of sterile water for injection and the mixture was shaken by Vortex® mixer for 5 minutes to yield a complete solution. The procedure was continued until no more material dissolved in the solution. The saturated solutions were then passed through a 0.22μ Millipore® filter. The resultant clear filtrates were sampled and assayed via HPLC assay within one hour after reconstitution. Solubility was measured as the m-AMSA base content in the filtrate.

physchem [2] = assay type: physicochemical; details: water
Description: DL-Pyroglutamic acid (130 mg) was dispersed in 20 ml of acetone to form a solution. To this solution there was added 400 mg of m-AMSA free base. The mixture was stirred and 10 ml of methyl alcohol added drop by drop. Upon agitation, a yellow solid gradually precipitated. The precipitate was collected, washed twice with acetone and dried in vacuo to give the title salt having a melting point of 156°-158° C. and an aqueous solubility at room temperature of about 10 mg/ml.
m-AMSA base (400 mg) was suspended in 30 ml of dried acetone. With gentle stirring, a solution was obtained by gradually adding a solution of 260 mg of DL-pyroglutamic acid in 15 ml of methanol to the above suspension. Two 10 ml portions of dried methanol were added to the solution to precipitate the dipyroglutamate salt. The salt was isolated by filtration, washed with methanol and dried in a vacuum dessicator. The yield of dipyroglutamate salt was about 600 mg; mp 145°-148° C.

physchem [3] = assay type: physicochemical; details: water, found by the present inventors, read-out: aqueous solubility
[4] = literature references / prior art, cited from earlier work
animal tumor systems = details: Cain et al. 1974; cited from earlier work
[5] = initial results; cited from earlier work
[6] = penicillin G, ampicillin, cephalothin etc.; U.S. Pat. No. 3,920,814; cited from earlier work

Structure (SMILES): COc1cc(NS(C)(=O)=O)ccc1Nc1c2ccccc2nc2ccccc12 [Example 1, m-AMSA Mono DL-Pyroglutamate Salt]
- Solubility (mg/ml m-AMSA base) ([1]; listed as m-AMSA pyroglutamate salt (1:1)): 12.5 mg/ml m-AMSA base
- solubility (physchem [2]; room temperature, read-out: aqueous solubility): ~10000 µg/mL

Structure (SMILES): COc1cc(NS(C)(=O)=O)ccc1Nc1c2ccccc2nc2ccccc12 [Example 2, m-AMSA Di DL-Pyroglutamate Salt]
- Solubility (mg/ml m-AMSA base) ([1]; listed as m-AMSA pyroglutamate salt (1:2)): 13.1 mg/ml m-AMSA base
- solubility (physchem [2]; m-AMSA base content by HPLC, read-out: aqueous solubility (m-AMSA base content as determined by HPLC)): 13100 µg/mL

Structure (SMILES): COc1cc(NS(C)(=O)=O)ccc1Nc1c2ccccc2nc2ccccc12 [m-AMSA methanesulfonate salt (1:1), m-AMSA methanesulfonate salt]
- Solubility (mg/ml m-AMSA base) ([1]; methanesulfonate salt): 0.090 mg/ml m-AMSA base
- solubility (physchem [3]): ~90 µg/mL
- solubility in water (words) ([4]; listed as monomethanesulfonate salt of m-AMSA, methanesulfonate salt): sufficiently soluble for experimental small animal (mice) antitumor studies
- solubility in water (words) ([4]; listed as monomethanesulfonate, methanesulfonate salt): insufficiently water-soluble for practical dosage forms
- solubility in water (words) ([4]; methanesulfonate salt): only slightly soluble in water

Structure (SMILES): COc1cc(NS(C)(=O)=O)ccc1Nc1c2ccccc2nc2ccccc12 [m-AMSA]
- antitumor activity (animal tumor systems): significant antitumor activity
- clinical evaluation [5]: very promising initial results
- solubility in water (words) [4]: very limited solubility in water

Structure (SMILES): COc1cc(NS(C)(=O)=O)ccc1Nc1c2ccccc2nc2ccccc12 [monohydrochloride]
- solubility in water (words) [4]: insufficiently water-soluble for practical dosage forms
- solubility in water (words) ([4]; listed as hydrochloride): only slightly soluble in water

Structure (SMILES): O=C1CCC(C(=O)O)N1 (stereo not drawn) [pyroglutamic acid, 2-pyrrolidone-5-carboxylic acid]
- effect on antibiotics [6]: potentiate the intrinsic activity and blood levels of certain antibiotics
